Measurements reported in patent US10822317B2, “Methods and compositions for wound healing” (QBiotics Limited, priority 2013, dated 2020).

Assays:
[1] = test system: wounds following necrosis and sloughing of spontaneous tumours; experiment: Resolution of wounds after sloughing of spontaneous tumours treated by intratumoural injection, equine; type: in vivo; details: for Average days from tumour slough to wound closure: Equine
Protocol: Veterinary clinical data on speed of resolution of wounds that formed following necrosis and sloughing of spontaneous tumours that had been treated by intratumoural injection of Compound 1 (30% 1,2 propanediol formulation at either 0.5 or 1.0 mg/mL concentration) in twenty-four companion animals are summarised in Table 17.
Note that all wounds were managed as open wounds and no bandaging, dressings, lotions or concomitant medications were used in any of these cases.

[2] = test system: human neonatal fibroblasts; experiment: Scratch closure, human neonatal fibroblasts, Method 1; type: cell-based
Protocol: The ability of early. passage neonatal foreskin fibroblasts (NFF) cultured in RPMI 1640-10% foetal calf serum to migrate across a scratch wound made in a confluent monolayer following treatment with purified compounds or plant extracts was determined using one or more of the following three methods.
Cells were seeded in 16-mm diameter wells (24-well plates), allowed to become confluent and 2 scratches made in each well using a sterile plastic pipette tip. The medium was removed, the wells washed with phosphate-buffered saline pH 7.2 (PBS) to remove dislodged cells, fresh medium added followed by serial 10-fold dilutions of pure compound or plant extract (2 μL). Incubation was continued for 16 to 30 hr. The experiment was terminated when the scratch edges of untreated cultures had closed approximately 25% of the initial gap. The monolayers were washed with PBS, fixed with ethanol and stained with 0.05% crystal violet. Photomicrographs of each well (EVOS microscope) were printed and each scratch measured at 3 places to determine the mean width. Accelerated wound closure-was considered to be significant if the remaining gap was <40% of the gap of the untreated controls: […]

[3] = test system: human peripheral blood mononuclear cells (PBMCs); experiment: Cytokine production by PBMCs (Cytometric Bead Array); type: cell-based; details: 24 hr, ± standard deviation
Description: Specific cytokines play critical roles in wound healing processes, and agents that modulate these substances may be useful in treating wounds and/or improving the cosmetic outcomes of healing (e.g. reduced scarring). The effects of Compounds 1, 2, 5 and 42 on regulation of four cytokines (IL-1β, IL-6, IL-8 and TNFα) known to be critical in early stages of the wound healing process were investigated in human peripheral blood mononuclear cells (PBMCs).
PBMCs were isolated by Ficoll-Paque sedimentation of heparinised blood acquired from both a person (Donor 1) and (Donor 2) human donor. All cells were cultured in 10% FCS, RPMI as detailed previously.
PBMCs were seeded at a density of 1.5×10^5 cells per well in 10% FCS, RPMI. Stimulation of these cells with the four compounds was performed at four concentrations (0 ng/mL, 3 ng/mL, 30 ng/mL, 300 ng/mL) in duplicate for 24 h in a humidified incubator at 37° C., 5% CO2. Media samples were taken from each of the required wells and frozen at −80° C. until use.
Cytometric Bead Array (CBA) assays were used to measure the results. CBA assays provide a method for capturing a soluble analyte or set of analytes using antibody coated beads of known sizes and fluorescence. Detection is then performed using another fluorescently labelled secondary antibody to form a sandwich complex. Each media sample was assayed for the presence of soluble […], IL-6, IL-8, IL-10, IL-12p70 and TNFα using a BD (Becton Dickinson) CBA Human Inflammatory Cytokine Detection Kit according to manufacturers' instructions. Mean fluorescence intensity values from each sample were compared against a standard curve to determine cytokine concentrations (pg/mL).

In the case of `CC=C(C)C(=O)OC1C(C)C2(O)C(C3OC3(CO)C(O)C3(O)C(=O)C(C)=CC32)C2C(C)(C)C12OC(=O)C(C)CC` (stereo not shown) [Compound 1, 12-tigloyl-13-(2-methylbutanoyl)-6,7-epoxy-4,5,9,12,13,20-hexahydroxy-1-tigliaen-3-one], the “No. of horses: Tissue deficit at wound site, Minor” value ([1]; 5 to 10% tissue deficit across the original wound area) was 0, the “No. of horses: Tissue deficit at wound site, Nil or minimal” value ([1]; <5% tissue deficit across the original wound area) was 6 and the “No. of horses: Tissue deficit at wound site, Substantial” value ([1]; >10% tissue deficit across the original wound area) was 0. For the same molecule, the “Average days from tumour slough to wound closure” value ([1]; wound size class 0.25 to 9 cm^2, 4 cases) was 20 ± 12 days, the “Average days from tumour slough to wound closure” value ([1]; wound size class 9 to 50 cm^2, 2 cases) was 53 ± 22 days and the “No. of horses: Hair regrowth on wound area, Sparse” value ([1]; Hair covers <50% of original wound area) was 0. For the same molecule, the “No. of horses: Hair regrowth on wound area, Partial” value ([1]; Hair covers >50% of original wound area) was 1, the “No. of horses: Hair regrowth on wound area, Full” value ([1]; Hair covers >95% of original wound area) was 5 and the “No. of horses: Scarring & skin thickening, Minor” value ([1]; Localised scar covering <10% of original wound area) was 1. The “No. of horses: Scarring & skin thickening, Substantial” value ([1]; Scarring covering >10% of original wound area) was 1, the “No. of horses: Scarring & skin thickening, Nil or minimal” value ([1]; Scarring not obvious visually or by touch) was 4 and the “No. of horses: Change in hair colour, No” value ([1]; healed wound site) was 3. The “No. of horses: Change in hair colour, Yes” value ([1]; healed wound site) was 3, the “No. of horses: Skin pigmentation, Hyperpigmentation” value ([1]; healed wound site) was 1 and the “No. of horses: Skin pigmentation, Hypopigmentation” value ([1]; healed wound site) was 1. The “No. of horses: Skin pigmentation, Normal” value ([1]; healed wound site) was 3, the “No. of horses: Skin pigmentation, Patchy” value ([1]; healed wound site) was 1 and the “% closure compared to control” value ([2]; 30 ng/mL) was 166%. The “% closure compared to control” value ([2]; 100 ng/mL) was 146%, the “staining pattern / growth of fibroblasts under the microscope” value ([2]; 24 hours post scratch) was “growing in a multilayered fashion” and the IL-1β level ([3]; Donor 1, 3 ng/mL) was 1.2 ± 0.2 pg/mL. The IL-6 level ([3]; Donor 1, 3 ng/mL) was 9.7 ± 1.2 pg/mL, the IL-8 level ([3]; Donor 1, 3 ng/mL) was 1720 ± 157 pg/mL and the TNFα level ([3]; Donor 1, 3 ng/mL) was 24.3 ± 1.4 pg/mL. For the same molecule, the IL-1β level ([3]; Donor 1, 30 ng/mL) was 11.9 ± 0.8 pg/mL, the IL-6 level ([3]; Donor 1, 30 ng/mL) was 34.2 ± 1.1 pg/mL and the IL-8 level ([3]; Donor 1, 30 ng/mL) was 16920 ± 1198 pg/mL. It also gave a TNFα level ([3]; Donor 1, 30 ng/mL) of 324.4 ± 0.0 pg/mL, an IL-1β level ([3]; Donor 1, 300 ng/mL) of 39 ± 0.2 pg/mL and an IL-6 level ([3]; Donor 1, 300 ng/mL) of 89.5 ± 13.8 pg/mL. The IL-8 level ([3]; Donor 1, 300 ng/mL) was 16419 ± 40 pg/mL, the TNFα level ([3]; Donor 1, 300 ng/mL) was 355.0 ± 4.3 pg/mL and the IL-1β level ([3]; Donor 2, 3 ng/mL) was 3.1 ± 0.9 pg/mL. It also gave an IL-6 level ([3]; Donor 2, 3 ng/mL) of 8.3 ± 0.4 pg/mL, an IL-8 level ([3]; Donor 2, 3 ng/mL) of 1493 ± 2 pg/mL and a TNFα level ([3]; Donor 2, 3 ng/mL) of 11.2 ± 0.3 pg/mL. It also gave an IL-1β level ([3]; Donor 2, 30 ng/mL) of 43.9 ± 1.7 pg/mL, an IL-6 level ([3]; Donor 2, 30 ng/mL) of 12.6 ± 0.9 pg/mL and an IL-8 level ([3]; Donor 2, 30 ng/mL) of 24078 ± 815 pg/mL. It also gave a TNFα level ([3]; Donor 2, 30 ng/mL) of 209.6 ± 7.5 pg/mL, an IL-1β level ([3]; Donor 2, 300 ng/mL) of 121.6 ± 5.6 pg/mL and an IL-6 level ([3]; Donor 2, 300 ng/mL) of 38.8 ± 9.0 pg/mL. The IL-8 level ([3]; Donor 2, 300 ng/mL) was 32021 ± 1156 pg/mL and the TNFα level ([3]; Donor 2, 300 ng/mL) was 592.2 ± 24.7 pg/mL.
With `CCC(C)C(=O)OC1C(C)C2(O)C(C3OC3(CO)C(O)C3(O)C(=O)C(C)=CC32)C2C(C)(C)C12OC(=O)C(C)CC` (stereo not shown) [Compound 2, 12,13-di-(2-methylbutanoyl)-6,7-epoxy-4,5,9,12,13,20-hexahydroxy-1-tigliaen-3-one] the “% closure compared to control” value ([2]; 30 ng/mL) was 130%, the “% closure compared to control” value ([2]; 100 ng/mL) was 129% and the IL-1β level ([3]; Donor 1, 3 ng/mL) was 1.4 ± 1.2 pg/mL. For the same molecule, the IL-6 level ([3]; Donor 1, 3 ng/mL) was 9.1 ± 0.2 pg/mL, the IL-8 level ([3]; Donor 1, 3 ng/mL) was 2099 ± 585 pg/mL and the TNFα level ([3]; Donor 1, 3 ng/mL) was 31.15 ± 6.9 pg/mL. It also gave an IL-1β level ([3]; Donor 1, 30 ng/mL) of 1.21 ± 0.4 pg/mL, an IL-6 level ([3]; Donor 1, 30 ng/mL) of 38 ± 3.9 pg/mL and an IL-8 level ([3]; Donor 1, 30 ng/mL) of 18229 ± 2592 pg/mL. For the same molecule, the TNFα level ([3]; Donor 1, 30 ng/mL) was 314.07 ± 37.9 pg/mL, the IL-1β level ([3]; Donor 1, 300 ng/mL) was 37.7 ± 4.6 pg/mL and the IL-6 level ([3]; Donor 1, 300 ng/mL) was 84.1 ± 3.6 pg/mL. It also gave an IL-8 level ([3]; Donor 1, 300 ng/mL) of 16634 ± 625 pg/mL, a TNFα level ([3]; Donor 1, 300 ng/mL) of 330.0 ± 28.7 pg/mL and an IL-1β level ([3]; Donor 2, 3 ng/mL) of 6.7 ± 1.5 pg/mL. It also gave an IL-6 level ([3]; Donor 2, 3 ng/mL) of 14.9 ± 1.1 pg/mL, an IL-8 level ([3]; Donor 2, 3 ng/mL) of 2608 ± 309 pg/mL and a TNFα level ([3]; Donor 2, 3 ng/mL) of 27.3 ± 8.3 pg/mL. For the same molecule, the IL-1β level ([3]; Donor 2, 30 ng/mL) was 52.6 ± 5.0 pg/mL, the IL-6 level ([3]; Donor 2, 30 ng/mL) was 14.5 ± 3.3 pg/mL and the IL-8 level ([3]; Donor 2, 30 ng/mL) was 26401 ± 271 pg/mL. The TNFα level ([3]; Donor 2, 30 ng/mL) was 211.5 ± 12.4 pg/mL, the IL-1β level ([3]; Donor 2, 300 ng/mL) was 123.9 ± 1.0 pg/mL and the IL-6 level ([3]; Donor 2, 300 ng/mL) was 41.4 ± 2.3 pg/mL. For the same molecule, the IL-8 level ([3]; Donor 2, 300 ng/mL) was 34117 ± 630 pg/mL and the TNFα level ([3]; Donor 2, 300 ng/mL) was 618.1 ± 63.7 pg/mL.
